Key:
Swiss male mice [1] = assay: Formalin Test in Mice: Late Phase; format: in vivo; conditions: Mus musculus, sc, subcutaneous, t=-10 min before formalin 5%
Description: Formalin Test in Mice: Late Phase
Swiss male mice (IFFA-CREDO) at 22±3 grams on test day.
Room temperature: 24.5<T<24.8° C.
t=-10 minutes. Subcutaneous administration of drug at 1 mL/100 g body weight. Either as a solution in distilled water or suspension in an aqueous solution of hydroxypropylmethylcellulose 0.2% (v/v).
t=0 minutes. Formalin 5% in sterile saline (v/v) administered by intraplanatar injection (20 μL) into the left paw.
t=+15 minutes. Mouse placed in cylinder.
t=+25 minutes. Nociceptive reaction: number of times left paw is licked during the observation period.
(§1) Results: Mean±sem per group
(§2) Dunnett's test after analysis of variance (Anova one way).
Reference: S. Hunskaar, Journal of Neuroscience Methods, 1985;14:69-76.

Swiss male mice [2] = assay: Rotarod Test in Mice (ataxic reaction); format: in vivo, mouse; conditions: subcutaneous, t=-30 min; ED50 of 10 mg/kg
Description: (§3) Swiss male mice (IFFA-CREDO) at 22±3 grams on the test day.
(§4) Room temperature: 21.2±0.2° C.
(§5) Rotarod (Ugobasile) at 18 rotations per minute.
(§6) t=-180 minutes and t=-120 minutes: mice trained to stay on the bar at least 120 seconds before falling off.
(§7) t=-30 minutes: Subcutaneous administration of drug at 1 mL/100 g body weight as either solution in distilled water or suspension in an aqueous solution of hydroxypropylmethylcellulose 0.2% (v/v).
(§8) t=0 minutes: Ataxic reaction: time taken for mouse to fall off the rotarod (maximum time 120 seconds).
as §1, §2

[3] = Rotarod Test in Mice (ataxic reaction); format: in vivo, mouse; conditions: mouse, rotarod, sc; subcutaneous, t=-30 min
Description: as §3, §4, §5, §6, §7, §8, §1, §2

SMILES | ED50 (Swiss male mice [1]) | Mouse Rotarod percent effect (in parentheses beside ED50) (Swiss male mice [2]) | ED50 at 0.5 h [3]
CN(C(=O)Cc1cccc2occc12)[C@H](CN1CC[C@H](O)C1)c1cccc(OCC(=O)O)c1 [Compound 38] | 0.95 mg/kg | 0% | > 10 mg/kg
CN(C(=O)Cc1cc2ccccc2o1)[C@H](CN1CC[C@H](O)C1)c1cccc(OCC(=O)O)c1 [Compound 33, [S-(R*,R*)]-{3-[1-[(Benzofuran-2-yl-acetyl)-methyl-amino]-2-(3-hydroxy-pyrrolidin-1-yl)-ethyl]-phenoxy}-acetic acid] | 0.19 mg/kg | 53% | ~10 mg/kg
CN(C(=O)Cc1ccc(S(C)(=O)=O)cc1)[C@H](CN1CC[C@H](O)C1)c1cccc(OCC(=O)O)c1 [Compound 43] | 0.51 mg/kg | 0% | > 10 mg/kg
CN(C(=O)Cc1cc2ccccc2o1)[C@H](CN1CCCC1)c1cccc(OCC(=O)O)c1 [Compound 15, (S)-(3-{1-[(Benzofuran-2-yl-acetyl)-methyl-amino]-2-pyrrolidin-1-yl-ethyl}-phenoxy)-acetic acid] | 2.95 mg/kg | 0% | > 10 mg/kg
CN(C(=O)Cc1coc2ccccc12)[C@H](CN1CCCC1)c1cccc(OCC(=O)O)c1 [Compound 19, (S)-(3-{1-[(Benzofuran-3-yl-acetyl)-methyl-amino]-2-pyrrolidin-1-yl-ethyl}-phenoxy)-acetic acid] | 1.17 mg/kg | 0% | > 10 mg/kg
CN(C(=O)Cc1coc2ccccc12)[C@H](CN1CC[C@H](O)C1)c1cccc(OCC(=O)O)c1 [Compound 28, [S-(R*,R*)]-{3-[1-[(Benzofuran-3-yl-acetyl)-methyl-amino]-2-(3-hydroxy-pyrrolidin-1-yl)-ethyl]-phenoxy}-acetic acid] | 0.36 mg/kg | 53% | ~10 mg/kg
CN(C(=O)Cc1ccc(S(C)(=O)=O)cc1)[C@H](CN1CCCC1)c1cccc(OCC(=O)O)c1 [Compound 23] | 6.1 mg/kg | – | –

— patent publication US6057357A, “Peripherally selective kappa opioid agonists” (Warner-Lambert Company, priority 1999, dated 2000)
